Measurements taken from patent US9364479B2, “Use of a receptor-type kinase modulator for treating polycystic kidney disease” (SYMPHONY EVOLUTION, INC., priority 2010, dated 2016).

Experiments:
[1] = system: Sodium, Site 2; test: NovaScreen assay; type: binding
[2] = molecular target: T1, c-Met (Homo sapiens, UniProt P08581); test: Chemiluminescent kinase assay; type: biochemical
T1 construct: Human, P948-; MgCl2, 0.02% Triton X-100,; S1343, N-GST-; GST (N); purchased ProQinase
Protocol: (§1) A Luciferase-coupled chemiluminescence assay was used to measure EGFR and KDR (VEGFR2) activity. Kinase activity was measured as the percentage of ATP consumed following the kinase reaction using luciferase-luciferin-coupled chemiluminescence. Reactions were conducted in 384-well white, medium-binding microtiter plates (Greiner). […] The reaction mixture was incubated at room temperature for 4 h. Following the kinase reaction, a 20 μL aliquot of Kinase Glo (Promega) was added and luminescence signal was measured using a Victor2 plate reader (Perkin-Elmer). Total ATP consumption was limited to 50%.
(§2) Further screening was performed using the biochemical assay methods of Example 2. Additional description of the components and concentrations are summarized in Table 8, Table 9, and Table 10, below.

[3] = molecular target: T2, ZAP-70 (Homo sapiens, UniProt P43403); test: Chemiluminescent kinase assay; type: biochemical
T2 construct: purchased MBL
T2 sequence (P43403 whole entry): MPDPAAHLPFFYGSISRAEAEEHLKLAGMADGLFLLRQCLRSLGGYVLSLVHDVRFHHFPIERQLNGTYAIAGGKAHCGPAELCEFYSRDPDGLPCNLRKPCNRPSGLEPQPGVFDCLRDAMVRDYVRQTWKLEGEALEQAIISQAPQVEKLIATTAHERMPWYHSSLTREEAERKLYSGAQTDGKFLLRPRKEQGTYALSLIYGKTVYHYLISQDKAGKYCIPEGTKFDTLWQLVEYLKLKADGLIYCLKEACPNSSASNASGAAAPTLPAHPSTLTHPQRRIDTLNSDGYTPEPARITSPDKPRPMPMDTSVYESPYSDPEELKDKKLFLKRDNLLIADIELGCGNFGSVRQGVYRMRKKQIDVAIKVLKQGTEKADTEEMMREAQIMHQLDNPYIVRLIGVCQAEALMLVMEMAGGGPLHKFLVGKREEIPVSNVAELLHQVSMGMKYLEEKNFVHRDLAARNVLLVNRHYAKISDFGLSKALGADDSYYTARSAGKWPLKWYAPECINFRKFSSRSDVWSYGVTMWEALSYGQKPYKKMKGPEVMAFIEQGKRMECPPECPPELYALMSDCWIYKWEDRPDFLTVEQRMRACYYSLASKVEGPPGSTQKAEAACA
Protocol: as §1, §2

[4] = molecular target: T3, c-Abl (Homo sapiens, UniProt P00519); test: Chemiluminescent kinase assay; type: biochemical
T3 construct: Human, P118-; mM MgCl2, 3 mM MnCl2, 1; S553, N-GST,; GST (N); purchased ProQinase
T3 sequence (P00519 118-553): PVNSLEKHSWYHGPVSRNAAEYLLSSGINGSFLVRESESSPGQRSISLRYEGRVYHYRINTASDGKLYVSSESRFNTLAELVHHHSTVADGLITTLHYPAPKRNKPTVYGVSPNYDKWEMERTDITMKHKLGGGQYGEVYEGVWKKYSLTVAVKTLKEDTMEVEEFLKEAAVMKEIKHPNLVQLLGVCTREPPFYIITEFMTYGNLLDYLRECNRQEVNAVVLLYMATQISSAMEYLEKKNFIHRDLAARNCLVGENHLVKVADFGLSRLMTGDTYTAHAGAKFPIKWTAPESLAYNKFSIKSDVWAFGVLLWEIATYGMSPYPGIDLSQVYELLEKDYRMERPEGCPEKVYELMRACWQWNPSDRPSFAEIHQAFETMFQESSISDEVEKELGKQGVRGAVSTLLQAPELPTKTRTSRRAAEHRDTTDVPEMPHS
Protocol: as §1, §2

[5] = molecular target: T4, Lck (Homo sapiens, UniProt P06239); test: Chemiluminescent kinase assay; type: biochemical
T4 construct: Human, Q225-; mM MgCl2, 3 mM MnCl2, 1; P510, N-GST/C-; GST (N); EF (C)
T4 sequence (P06239 225-509 limits assumed): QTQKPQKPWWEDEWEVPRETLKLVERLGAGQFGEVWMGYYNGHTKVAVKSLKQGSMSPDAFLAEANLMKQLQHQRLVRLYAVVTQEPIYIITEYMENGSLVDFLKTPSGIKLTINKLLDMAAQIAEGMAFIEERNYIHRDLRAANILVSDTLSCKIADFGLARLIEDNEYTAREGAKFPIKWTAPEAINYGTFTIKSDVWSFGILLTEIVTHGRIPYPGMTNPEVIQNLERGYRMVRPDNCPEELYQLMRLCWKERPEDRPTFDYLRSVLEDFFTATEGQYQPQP
Protocol: as §1, §2

[6] = system: Potassium Channel, Ca2+ Act., VI; test: NovaScreen assay; type: binding
[7] = system: H1975 human tumor xenograft; test: H1975 xenograft, tumor growth; type: in vivo; settings: Mus musculus, NCI-H1975; qd × 14
Protocol: Before treatment, H1975, A431, or MDA-MB-231 cells were harvested from exponentially growing cultures, detached by brief trypsinization, washed twice in cold HBSS, resuspended in ice-cold HBSS, and implanted either s.c. (H1975, 3×10^6 cells per mouse) or i.d. (A431, 1×10^6 cells per mouse) into the dorsal hind flank or s.c. into the mammary fat pad (MDA-MB-231, 1×10^6 cells per mouse). Palpable tumors were measured by caliper twice weekly until the mean tumor weight was in the range of ˜80 to 120 mg. Tumor weight was determined by measuring perpendicular diameters with a caliper and multiplying the measurements of diameters in two dimensions: tumor volume (mm^3)/2=length (mm)×width (mm^2)/2. […] The mean tumor weight of each animal in the respective control and treatment groups was determined twice weekly during the dosing periods. […]
(§3) The response of tumors to treatment was determined by comparing the mean tumor weight of the treatment group with the appropriate control group. Percentage inhibition of tumor growth was determined with the following formula: Percentage inhibition=100×[1−(Xf−Xo)/(Yf−Yo)], where Xf and Yf are the mean tumor weights of the treatment and control groups, respectively, on day f, and Xo and Yo are the mean tumor weights of treatment and control groups respectively, on day zero (staged tumor weights after grouping)

[8] = molecular target: T5, EphB4 (Homo sapiens, UniProt P54760); test: Radiometric 33P-phosphoryl transfer kinase assay; type: biochemical; settings: ATP at Km
T5 construct: residues E605-E890 of human EphB4 containing a six histidine NH2-terminal tag; His6 (N); made in house; host or cells: baculovirus expression system
T5 sequence (P54760 605-890): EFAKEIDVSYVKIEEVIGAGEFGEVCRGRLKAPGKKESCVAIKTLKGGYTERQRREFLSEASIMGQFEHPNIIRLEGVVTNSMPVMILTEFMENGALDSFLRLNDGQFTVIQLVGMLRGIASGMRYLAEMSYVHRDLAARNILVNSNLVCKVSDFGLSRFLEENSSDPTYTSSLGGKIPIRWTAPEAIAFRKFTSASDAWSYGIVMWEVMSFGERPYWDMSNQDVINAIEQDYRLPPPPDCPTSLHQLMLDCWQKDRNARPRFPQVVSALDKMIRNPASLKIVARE
Protocol: Dose-response experiments were done using 10 different inhibitor concentrations in 384-well microtiter plates. The ATP concentration used for each assay was equivalent to the Km for each kinase. IC50 values were calculated by nonlinear regression analysis using the four-variable equation: Y=min+(max−min)/[1+([I]/IC50)N], where Y is the observed signal, [I] is the inhibitor concentration, min is the background signal in the absence of enzyme (0% enzyme activity), max is the signal in the absence of inhibitor (100% enzyme activity), IC50 is the inhibitor concentration required at 50% enzyme inhibition, and N represents the empirical Hill slope as a measure of cooperativity.
A radiometric ^33P-Phosphoryl transfer kinase assay was used to measure EphB4, insulin-like growth factor-I receptor (IGFR-1), and insulin receptor (IRK) activity. Reactions were performed in 384-well white, clear bottom, high-binding microtiter plates (Greiner). Plates were coated with 2 μg/well peptide substrate in a 50 μL volume. […] The coated plates were washed once with 50 μL assay buffer following overnight incubation at room temperature. Test compound and either 5 nmol/L EphB4 (residues E605-E890 of human EphB4 containing a six histidine NH2-terminal tag, expressed in a baculovirus expression system and purified using metal chelate chromatography), 4 nmol/L insulin-like growth factor-I receptor (residues M954-C1367 of human insulin-like growth factor-I receptor, Proqinase GmbH), or 15 nmol/L insulin receptor 1 (residues P948-S1343 of human insulin receptor 1, Proqinase) were combined with [^33P]g-ATP (5 μmol/L, 3.3 μCi/nmol) in a total volume of 20 μL. The reaction mixture was incubated at room temperature for 1.5 to 2.5 h and terminated by aspiration. The microtiter plates were subsequently washed six times with 0.05% Tween-PBS buffer. Scintillation fluid (50 μL/well) was added and incorporated ^33P was measured by liquid scintillation spectrometry using a MicroBeta scintillation counter (Perkin-Elmer).

[9] = system: Calu-6 human tumor xenograft; test: Calu-6 xenograft, tumor growth; type: in vivo; settings: Mus musculus, qd × 28
Protocol: as §3

T1 sequence (P08581 956-1390 limits assumed): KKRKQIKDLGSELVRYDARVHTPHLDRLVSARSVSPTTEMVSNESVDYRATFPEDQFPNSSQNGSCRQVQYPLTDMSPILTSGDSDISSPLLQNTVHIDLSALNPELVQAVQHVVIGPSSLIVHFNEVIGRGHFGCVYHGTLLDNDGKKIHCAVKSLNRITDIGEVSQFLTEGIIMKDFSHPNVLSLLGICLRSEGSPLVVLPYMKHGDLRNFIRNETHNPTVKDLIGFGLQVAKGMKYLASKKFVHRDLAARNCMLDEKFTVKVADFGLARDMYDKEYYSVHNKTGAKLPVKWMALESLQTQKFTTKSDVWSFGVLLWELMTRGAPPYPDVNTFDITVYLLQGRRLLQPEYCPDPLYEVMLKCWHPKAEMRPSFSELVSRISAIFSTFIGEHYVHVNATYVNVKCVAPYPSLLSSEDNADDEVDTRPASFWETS

## COc1cc2c(Nc3ccc(Cl)c(Cl)c3F)ncnc2cc1OC[C@@H]1C[C@@H]2CN(C)C[C@@H]2C1 [XL-647, N-(3,4-dichloro-2-fluorophenyl)-7-({[(3aR,5r,6aS)-2-methyloctahydrocyclopenta[c]pyrrol-5-yl]methyl}oxy)-6-(methyloxy)quinazolin-4-amine]
[1]
  Inhibition, 10 μM XL-647: 88.06%
[2]
  IC50: 332 ± 50.7 nM
[3]
  IC50: 7810 ± 655 nM
[4]
  IC50: 337 ± 3.6 nM
[5]
  IC50: 31 ± 0.3 nM
[6]
  Inhibition, 10 μM XL-647: 17.02%
[7]
  ED50: 17 mg/kg
[8]
  IC50: 1.4 ± 0.2 nM
[9]
  ED50: 16.4 mg/kg
